This data set has as its system Slug species. In words: Slug irritation test (mucus production as model of nasal irritation). It is filed as in vivo. The note with it: 15 min exposure, mean ± SEM (n). How it is done:
The organic acid of the capsule contents was tested for potential nasal irritation using a slug irritation model.

With `CCCCCCCCCCCCOS(=O)(=O)[O-].[Na+]` [Sodium Lauryl Sulfate], the “Mucus Production (% of Body Weight)” value is, setting by setting: (dose 0.3 mg) 5.9 ± 2.0 (6) % of Body Weight; (dose 1.0 mg) 9.5 ± 2.1 (9) % of Body Weight; (dose 3.0 mg) 13.4 ± 2.6 (3) % of Body Weight; (dose 5.0 mg) 9.8 ± 2.1 (6) % of Body Weight; (dose 10 mg) 16.6 ± 0.9 (3) % of Body Weight; (dose 15 mg) 22.7 ± 4.5 (3) % of Body Weight. The “Mucus Production (% of Body Weight)” value (dose 20 mg) is 26.2 ± 3.8 (3) % of Body Weight.
For “Benzalkonium Chloride [Benzalkonium Chloride (BAC)]”, the “Mucus Production (% of Body Weight)” value (dose 1%) is given as 24.7 ± 2.1 (3) % of Body Weight.
For the molecule `O=C(O)C(O)C(O)C(=O)O` (stereo not shown) [Tartaric Acid], the “Mucus Production (% of Body Weight)” value is, setting by setting: (dose 3.0 mg) 2.8 ± 2.4 (3) % of Body Weight; (dose 5.0 mg) 7.2 ± 0.7 (6) % of Body Weight; (dose 10 mg) 10.0 ± 1.3 (3) % of Body Weight; (dose 15 mg) 33.6 ± 1.1 (6) % of Body Weight; (dose 20 mg) 24.6 ± 2.8 (3) % of Body Weight.

Source of the values: patent publication US11478426B2, “Abuse deterrent immediate release capsule dosage forms” (SpecGX LLC, priority 2018, dated 2022).
